Measurements as given in paper PMC10461224, “Development of an Affinity-Based Probe to Profile Endogenous Human Adenosine A3 Receptor Expression” (Journal of Medicinal Chemistry, 2023).
Marks after values point to notes of the source that are not given here.

Assays:
human A2BAR (hA2BAR) = biological target: T1, human A2BAR (hA2BAR) (Homo sapiens, UniProt P29275); experiment: Single-point radioligand displacement, [3H]PSB-603; assay type: binding; settings: 1 μM probe; CHO-spap cell membranes; co-incubated with radioligand 30 min at 25 °C; mean of two experiments
T1 construct: expressed in transfected cells; host or cells: CHO-spap cells (CHO-spap-hA2BAR), gift of S.J. Dowell, GlaxoSmithKline; membrane fractions
T1 sequence (P29275 1-332): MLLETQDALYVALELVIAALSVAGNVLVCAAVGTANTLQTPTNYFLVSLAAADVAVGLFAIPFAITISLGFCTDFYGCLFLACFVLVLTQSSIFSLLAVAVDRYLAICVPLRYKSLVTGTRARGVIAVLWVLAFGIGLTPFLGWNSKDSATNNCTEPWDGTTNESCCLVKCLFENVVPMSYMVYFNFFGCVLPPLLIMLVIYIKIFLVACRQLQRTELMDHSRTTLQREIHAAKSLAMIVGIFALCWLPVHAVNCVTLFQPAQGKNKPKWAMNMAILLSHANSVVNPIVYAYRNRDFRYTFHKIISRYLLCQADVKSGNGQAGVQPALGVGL
Protocol: Membrane aliquots containing 15 μg (CHOhA3AR), 5 μg (CHOhA1AR), or 30 μg (HEK293hA2AAR and CHO-spap-A2BAR) of protein were resuspended in assay buffer (A3AR: 50 mM Tris–HCl, pH 8.0, 10 mM MgCl2, 1 mM EDTA, 0.01% CHAPS; A1AR and A2AAR: 50 mM Tris–HCl, pH 7.4; A2BAR: 50 mM Tris–HCl, pH 7.4, 0.1% CHAPS). […] Nonspecific binding was determined in the presence of 100 μM NECA (A3AR), 100 μM CPA (A1AR), 100 μM NECA (A2AAR), and 10 μM ZM241385 (A2BAR). Incubations were terminated by rapid vacuum filtration to separate the bound and free radioligand through prewetted 96-well GF/C filter plates using a PerkinElmer Filtermate harvester. Filters were subsequently washed 12 times with ice-cold wash buffer (A3AR: 50 mM Tris–HCl, pH 8.0, 10 mM MgCl2, 1 mM EDTA; A1AR and A2AAR: 50 mM Tris–HCl, pH 7.4; A2BAR: 50 mM Tris–HCl, pH 7.4, 0.1% BSA). The plates were dried at 55 °C, and MicroscintTM-20 cocktail (PerkinElmer) was added subsequently.
Single point displacement values shown are mean percentages of two individual experiments performed in duplicate. All pKi values shown are mean values ± SEM of three individual experiments performed in duplicate.

hA3AR = biological target: T2, hA3AR (Homo sapiens, UniProt P0DMS8); experiment: Full curve radioligand displacement assay on the adenosine A3 receptor, [3H]PSB-11; assay type: binding; settings: mean ± SEM, n=3; for apparent pKi (pre-0 h) / apparent pKi (pre-4 h): CHO-hA3AR membranes, 25 °C; for apparent pKi (pre-0 h): 0.5 h co-incubation of probe and radioligand, no pre-incubation; for apparent pKi (pre-4 h): 4 h pre-incubation with probe then 0.5 h co-incubation with radioligand; for fold change, ratio Ki(0 h)/Ki(4 h): hA3AR
T2 construct: expressed in transfected cells; host or cells: CHO cells (CHOhA3AR), gift of Prof; K.N. Klotz, University of Würzburg; used as membrane fractions or live cells
T2 sequence (P0DMS8 1-318): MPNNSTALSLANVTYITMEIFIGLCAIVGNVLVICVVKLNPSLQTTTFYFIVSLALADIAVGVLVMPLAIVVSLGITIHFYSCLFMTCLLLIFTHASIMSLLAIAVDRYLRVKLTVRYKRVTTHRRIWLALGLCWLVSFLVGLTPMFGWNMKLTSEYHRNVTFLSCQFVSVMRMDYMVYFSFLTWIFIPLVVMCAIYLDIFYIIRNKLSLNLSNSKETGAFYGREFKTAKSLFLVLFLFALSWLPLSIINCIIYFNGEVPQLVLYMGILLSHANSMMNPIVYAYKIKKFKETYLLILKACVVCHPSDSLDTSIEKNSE
Protocol: Membrane aliquots containing 15 μg of protein (CHOhA3AR) were resuspended in assay buffer (50 mM Tris–HCl, pH 8.0, 10 mM MgCl2, 1 mM EDTA, 0.01% CHAPS). The competing ligand (concentrations ranging from 0.1 to 1000 nM) was added and pre-incubated with the membrane fractions for either 0 or 4 h. The radioligand (10 nM [^3H]PSB-11) was then added and incubated with the samples in a total volume of 100 μL of assay buffer for 30 min at 25 °C. Nonspecific binding was determined in the presence of 100 μM NECA. Incubations were terminated by rapid vacuum filtration through prewetted 96-well GF/C filter plates using a PerkinElmer Filtermate harvester. Filters were subsequently washed 12 times with ice-cold wash buffer (50 mM Tris–HCl, pH 8.0, 10 mM MgCl2, 1 mM EDTA). The plates were dried at 55 °C, and MicroscintTM-20 cocktail (PerkinElmer) was added subsequently. After 3 h, the filter-bound radioactivity was determined using a Tri-Carb 2810TR Liquid Scintillation Analyzer (PerkinElmer).
[…]. Single point displacement values shown are mean percentages of two individual experiments performed in duplicate. All pKi values shown are mean values ± SEM of three individual experiments performed in duplicate. Statistical analysis was performed using a one-way ANOVA test with multiple comparisons (****p < 0.0001).

C#CCOc1ccn2c(c1)nc1c2c(=O)n(CCC)c(=O)n1CCCNC(=O)c1ccc(S(=O)(=O)F)cc1 [compound 9, 4-((3-(2,4-Dioxo-8-(prop-2-yn-1-yloxy)-3-propyl-3,4-dihydropyrido[2,1-f]purin-1(2H)-yl)propyl)carbamoyl)benzenesulfonyl fluoride]
% specific [3H]PSB-603 displacement, hA2BAR (human A2BAR (hA2BAR)): 1%
apparent pKi (pre-0 h) (hA3AR): 7.27 ± 0.07
apparent pKi (pre-4 h) (hA3AR): 8.40 ± 0.03 ^d
fold change, ratio Ki(0 h)/Ki(4 h) (hA3AR): 13.5 ± 1.2

C#CCN(CCCn1c(=O)n(CCC)c(=O)c2c1nc1cc(OC)ccn12)C(=O)c1ccc(S(=O)(=O)F)cc1 [compound 5, 4-((3-(8-Methoxy-2,4-dioxo-3-propyl-3,4-dihydropyrido[2,1-f]purin-1(2H)-yl)propyl)(prop-2-yn-1-yl)carbamoyl)benzenesulfonyl fluoride]
% specific [3H]PSB-603 displacement, hA2BAR (human A2BAR (hA2BAR)): 10%
apparent pKi (pre-0 h) (hA3AR): 7.55 ± 0.01
apparent pKi (pre-4 h) (hA3AR): 8.52 ± 0.05 ^d
fold change, ratio Ki(0 h)/Ki(4 h) (hA3AR): 9.5 ± 1.0
